Reference: patent US20120101093A1, “SUBSTITUTED IMIDAZO[1,2-A]PYRIDINE DERIVATIVES, PHARMACEUTICAL COMPOSITIONS, AND METHODS OF USE AS BETA-SECRETASE INHIBITORS” (HIGH POINT PHARMACEUTICALS, LLC, priority 2009, published 2012)
Counter-ions that a name gives are not always drawn.

Columns and labels:
BACE-1 enzyme = biological target: T1, BACE-1 enzyme (Homo sapiens, UniProt P56817); experiment: BACE Fluorescence Resonance Energy Transfer (FRET) Assay; type: biochemical; settings: pH 4-4.5, 30 min pre-incubation, about 1.5 hours reaction
T1 construct: purchased R & D Systems 931AS
T1 sequence (P56817 46-457 limits assumed): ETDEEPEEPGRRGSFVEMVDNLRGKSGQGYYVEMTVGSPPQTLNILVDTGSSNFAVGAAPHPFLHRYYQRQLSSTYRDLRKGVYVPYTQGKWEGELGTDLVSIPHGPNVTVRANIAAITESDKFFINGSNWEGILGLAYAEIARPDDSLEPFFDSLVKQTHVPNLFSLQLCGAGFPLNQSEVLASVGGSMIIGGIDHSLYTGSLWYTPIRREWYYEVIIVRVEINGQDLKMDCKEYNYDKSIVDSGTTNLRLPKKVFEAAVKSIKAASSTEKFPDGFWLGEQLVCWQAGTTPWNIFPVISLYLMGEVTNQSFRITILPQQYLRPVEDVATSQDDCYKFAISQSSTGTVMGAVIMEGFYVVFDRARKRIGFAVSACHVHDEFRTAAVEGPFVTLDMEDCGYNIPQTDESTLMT
How it was run: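 Fluorescence (ex 540, em 585 nm) after ~1.5 h room-temperature cleavage of a quenched rhodamine peptide tracks BACE-1 activity. Enzyme and compound first sit 30 min in pH 4-4.5 acetate buffer with CHAPS, Triton X-100, EDTA, 7.5% DMSO. Values given as IC50 or % inhibition.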

[1] = system: Aβ1-40 secreted from HEK293 cells stably expressing wildtype human APP695 protein (HEK-APPwt cells); experiment: Aβ Cell Based Assay (Aβ1-40 secretion, ELISA); settings: Homo sapiens, HEK293, 6 h, 6 hours incubation, reduction of Aβ1-40 secretion
How it was run: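 Cells in DMEM with 2% FBS exposed to ten compound concentrations for 6 h at 37 °C. Secreted Aβ1-40 in supernatant quantified by sandwich ELISA (82E1 capture, TMB, OD450). EC50 from percent inhibition, DAPT defining 100% inhibition, non-linear fit.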

SMILES	IC50 (BACE-1 enzyme)	EC50 [1]
CN1CCN(Cc2cccn3cc(C(=O)Nc4nc5cc(-c6cccc(C(F)(F)F)c6)ccc5[nH]4)nc23)CC1 [Example 194, 8-(4-Methyl-piperazin-1-ylmethyl)-imidazo[1,2-a]pyridine-2-carboxylic acid [5-(3-trifluoromethyl-phenyl)-1H-benzoimidazol-2-yl]-amide]	0.87 µM	6.27 µM
Cc1cccn2cc(C(=O)Nc3nc4cc(-c5cccc(C#N)c5)ccc4[nH]3)nc12 [Example 84, 8-Methyl-imidazo[1,2-a]pyridine-2-carboxylic acid [5-(3-cyano-phenyl)-1H-benzoimidazol-2-yl]-amide]	1.21 µM	2.9 µM
Cc1cccc2nc(C(=O)Nc3nc4cc(OCc5ccccc5)ccc4[nH]3)cn12 [Example 12, 5-Methyl-imidazo[1,2-a]pyridine-2-carboxylic acid (5-benzyloxy-1H-benzoimidazol-2-yl)-amide]	0.2 µM	2.01 µM
CCOc1ccc(-c2ccc3[nH]c(NC(=O)c4cn5c(C)cccc5n4)nc3c2)cc1Cl [Example 106, 5-Methyl-imidazo[1,2-a]pyridine-2-carboxylic acid [5-(3-chloro-4-ethoxy-phenyl)-1H-benzoimidazol-2-yl]-amide]	0.8 µM	0.93 µM
Cc1cccc2nc(C(=O)Nc3nc4cc(C5CCC(C)CC5)ccc4[nH]3)cn12 (centres unmarked) [Example 119, 5-Methyl-imidazo[1,2-a]pyridine-2-carboxylic acid [5-(4-methyl-cyclohexyl)-1H-benzoimidazol-2-yl]-amide]	0.27 µM	1.82 µM
CC(C)CNCc1ccc2nc(C(=O)Nc3nc4cc(-c5cccc(C(F)(F)F)c5)ccc4[nH]3)cn2c1 [Example 176, 6-(Isobutylamino-methyl)-imidazo[1,2-a]pyridine-2-carboxylic acid [5-(3-trifluoromethyl-phenyl)-1H-benzoimidazol-2-yl]-amide]	0.37 µM	3.91 µM
Cc1cccn2cc(C(=O)Nc3nc4cc(-c5ccc(C(F)(F)F)cc5)ccc4[nH]3)nc12 [Example 50, 8-Methyl-imidazo[1,2-a]pyridine-2-carboxylic acid [5-(4-trifluoromethyl-phenyl)-1H-benzoimidazol-2-yl]-amide]	0.32 µM	4.41 µM
COc1ccc(-c2ccc3[nH]c(NC(=O)c4cn5c(N6CCN(C)CC6)cccc5n4)nc3c2)cc1C(F)(F)F [Example 124, 5-(4-Methyl-piperazin-1-yl)-imidazo[1,2-a]pyridine-2-carboxylic acid [5-(4-methoxy-3-trifluoromethyl-phenyl)-1H-benzoimidazol-2-yl]-amide]	0.55 µM	3.13 µM
Cc1cccc2nc(C(=O)Nc3nc4cc(-c5cccc(Cl)c5)ccc4[nH]3)cn12 [Example 27, 5-Methyl-imidazo[1,2-a]pyridine-2-carboxylic acid [5-(3-chloro-phenyl)-1H-benzoimidazol-2-yl]-amide]	0.5 µM	1.45 µM
Cc1cccc2nc(C(=O)Nc3nc4cc(-c5ccsc5)ccc4[nH]3)cn12 [Example 102, 5-Methyl-imidazo[1,2-a]pyridine-2-carboxylic acid (5-thiophen-3-yl-1H-benzoimidazol-2-yl)-amide]	0.45 µM	2.46 µM
Cc1cccc2nc(C(=O)Nc3nc4cc(OCc5ccc(C(F)(F)F)cc5)ccc4[nH]3)cn12 [Example 18, 5-Methyl-imidazo[1,2-a]pyridine-2-carboxylic acid [5-(4-trifluoromethyl-benzyloxy)-1H-benzoimidazol-2-yl]-amide]	0.16 µM	0.42 µM
CN(C)Cc1cccc2nc(C(=O)Nc3nc4cc(-c5cccc(C(F)(F)F)c5)ccc4[nH]3)cn12 [Example 163, 5-Dimethylaminomethyl-imidazo[1,2-a]pyridine-2-carboxylic acid [5-(3-trifluoromethyl-phenyl)-1H-benzoimidazol-2-yl]-amide]	0.36 µM	1.11 µM
O=C(Nc1nc2cc(-c3cccc(C(F)(F)F)c3)ccc2[nH]1)c1cn2c(OC3CCNCC3)cccc2n1 [Example 2, 5-(Piperidin-4-yloxy)-imidazo[1,2-a]pyridine-2-carboxylic acid[5-(3-trifluoromethyl-phenyl)-1H-benzoimidazol-2-yl]-amide trihydrochloride]	0.98 µM	6.4 µM
COCCNC(=O)c1cccc2nc(C(=O)Nc3nc4cc(-c5cc(F)cc(Cl)c5)ccc4[nH]3)cn12 [Example 228]	0.28 µM	1.34 µM
Cc1cccc2nc(C(=O)Nc3nc4cc(-c5cccc(C#N)c5)ccc4[nH]3)cn12 [Example 82, 5-Methyl-imidazo[1,2-a]pyridine-2-carboxylic acid [5-(3-cyano-phenyl)-1H-benzoimidazol-2-yl]-amide]	2.21 µM	1.1 µM
Cc1cccc2nc(C(=O)Nc3nc4cc(-c5ccc(F)c(Cl)c5)ccc4[nH]3)cn12 [Example 64, 5-Methyl-imidazo[1,2-a]pyridine-2-carboxylic acid [5-(3-chloro-4-fluoro-phenyl)-1H-benzoimidazol-2-yl]-amide]	0.31 µM	0.14 µM
Cc1cccc2nc(C(=O)Nc3nc4cc(-c5cccc(C(F)(F)F)c5)ccc4[nH]3)cn12 [Example 1, 5-Methyl-imidazo[1,2-a]pyridine-2-carboxylic acid[5-(3-trifluoromethyl-phenyl)-1H-benzoimidazol-2-yl]-amide]	0.32 µM	0.53 µM
O=C(Nc1nc2cc(-c3cccc(C(F)(F)F)c3)ccc2[nH]1)c1cn2cc(CO)ccc2n1 [Example 177, 6-Hydroxymethyl-imidazo[1,2-a]pyridine-2-carboxylic acid [5-(3-trifluoromethyl-phenyl)-1H-benzoimidazol-2-yl]-amide]	0.3 µM	1.03 µM
Cc1cccn2cc(C(=O)Nc3nc4cc(-c5cccc(C(F)(F)F)c5)ccc4[nH]3)nc12 [Example 32, 8-Methyl-imidazo[1,2-a]pyridine-2-carboxylic acid [5-(3-trifluoromethyl-phenyl)-1H-benzoimidazol-2-yl]-amide]	0.52 µM	1.36 µM
Cc1cccn2cc(C(=O)Nc3nc4cc(-c5cc(C(F)(F)F)ccc5F)ccc4[nH]3)nc12 [Example 71, 8-Methyl-imidazo[1,2-a]pyridine-2-carboxylic acid [5-(2-fluoro-5-trifluoromethyl-phenyl)-1H-benzoimidazol-2-yl]-amide]	0.36 µM	1.56 µM
CC(C)CN(C)Cc1cccn2cc(C(=O)Nc3nc4cc(-c5cccc(C(F)(F)F)c5)ccc4[nH]3)nc12 [Example 199, 8-[(Isobutyl-methyl-amino)-methyl]-imidazo[1,2-a]pyridine-2-carboxylic acid [5-(3-trifluoromethyl-phenyl)-1H-benzoimidazol-2-yl]-amide]	0.94 µM	5.34 µM
Cc1cccc2nc(C(=O)Nc3nc4cc(-c5ccc(C(F)(F)F)cc5)ccc4[nH]3)cn12 [Example 23, 5-Methyl-imidazo[1,2-a]pyridine-2-carboxylic acid [5-(4-trifluoromethyl-phenyl)-1H-benzoimidazol-2-yl]-amide]	0.27 µM	0.66 µM
